Results reported in ChEMBL document CHEMBL2057159, “Methylation of imidazoline related compounds leads to loss of α₂-adrenoceptor affinity. Synthesis and biological evaluation of selective I₁ imidazoline receptor ligands” (Bioorg Med Chem, 2012).
The source made the active and inactive calls. No cut-off for these calls is given here.

Tests used:
[1] = Displacement of [3H]idazoxan from imidazoline I2 receptor in New Zealand rabbit renal cortex homogenate after 60 mins […]; design: species or system Oryctolagus cuniculus
Nischarin = Nischarin (Rattus norvegicus, UniProt Q4G017); assay: Displacement of [125I]paraiodoclonidine from imidazoline I1 receptor in rat PC12 cells after 30 mins by gamma counter
Nischarin, sequence (Q4G017 whole entry): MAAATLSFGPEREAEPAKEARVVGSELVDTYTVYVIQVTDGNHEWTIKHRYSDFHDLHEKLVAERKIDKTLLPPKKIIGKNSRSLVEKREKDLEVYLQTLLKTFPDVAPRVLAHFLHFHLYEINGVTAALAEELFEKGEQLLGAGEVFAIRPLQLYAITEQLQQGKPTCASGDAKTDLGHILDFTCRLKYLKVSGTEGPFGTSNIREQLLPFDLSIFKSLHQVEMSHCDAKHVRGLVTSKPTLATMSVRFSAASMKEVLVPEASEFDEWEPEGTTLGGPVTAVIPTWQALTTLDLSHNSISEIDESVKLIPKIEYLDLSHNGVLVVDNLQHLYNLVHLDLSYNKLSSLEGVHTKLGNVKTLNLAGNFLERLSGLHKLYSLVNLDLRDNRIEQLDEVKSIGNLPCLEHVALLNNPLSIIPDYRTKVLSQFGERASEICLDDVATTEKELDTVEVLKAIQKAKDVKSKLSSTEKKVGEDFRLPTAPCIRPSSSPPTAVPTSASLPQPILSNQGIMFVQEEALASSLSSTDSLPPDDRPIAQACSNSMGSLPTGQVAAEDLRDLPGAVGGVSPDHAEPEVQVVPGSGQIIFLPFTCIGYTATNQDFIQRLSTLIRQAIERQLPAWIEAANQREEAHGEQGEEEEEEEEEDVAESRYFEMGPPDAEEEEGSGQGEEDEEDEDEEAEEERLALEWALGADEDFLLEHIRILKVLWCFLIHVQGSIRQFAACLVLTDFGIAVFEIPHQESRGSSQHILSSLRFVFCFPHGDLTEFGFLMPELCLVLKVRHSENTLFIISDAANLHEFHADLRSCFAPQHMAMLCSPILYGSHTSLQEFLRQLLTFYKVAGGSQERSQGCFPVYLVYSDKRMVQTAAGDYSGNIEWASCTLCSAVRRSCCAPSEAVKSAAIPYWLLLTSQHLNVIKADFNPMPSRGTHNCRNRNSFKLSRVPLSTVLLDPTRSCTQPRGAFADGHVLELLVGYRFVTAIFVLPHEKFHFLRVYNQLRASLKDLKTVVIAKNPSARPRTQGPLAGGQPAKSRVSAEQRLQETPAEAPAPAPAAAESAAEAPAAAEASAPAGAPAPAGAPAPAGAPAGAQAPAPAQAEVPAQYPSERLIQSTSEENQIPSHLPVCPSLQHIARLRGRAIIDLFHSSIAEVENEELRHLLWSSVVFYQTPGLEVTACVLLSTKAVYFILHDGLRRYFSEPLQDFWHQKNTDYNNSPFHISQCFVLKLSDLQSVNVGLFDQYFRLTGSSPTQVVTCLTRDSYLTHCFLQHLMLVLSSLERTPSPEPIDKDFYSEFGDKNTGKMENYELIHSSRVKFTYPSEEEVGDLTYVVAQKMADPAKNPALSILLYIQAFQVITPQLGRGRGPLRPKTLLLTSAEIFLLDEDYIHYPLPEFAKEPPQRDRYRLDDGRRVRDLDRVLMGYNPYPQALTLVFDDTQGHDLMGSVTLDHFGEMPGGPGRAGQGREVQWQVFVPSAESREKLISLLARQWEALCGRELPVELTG

[2] = target: T1, Alpha-2A adrenergic receptor (Homo sapiens, UniProt P08913); assay: Displacement of [3H]RX821001 from human alpha2A adrenoceptor expressed in CHO cells after 60 mins […]; assay type: cell-based
T1 sequence (P08913 whole entry): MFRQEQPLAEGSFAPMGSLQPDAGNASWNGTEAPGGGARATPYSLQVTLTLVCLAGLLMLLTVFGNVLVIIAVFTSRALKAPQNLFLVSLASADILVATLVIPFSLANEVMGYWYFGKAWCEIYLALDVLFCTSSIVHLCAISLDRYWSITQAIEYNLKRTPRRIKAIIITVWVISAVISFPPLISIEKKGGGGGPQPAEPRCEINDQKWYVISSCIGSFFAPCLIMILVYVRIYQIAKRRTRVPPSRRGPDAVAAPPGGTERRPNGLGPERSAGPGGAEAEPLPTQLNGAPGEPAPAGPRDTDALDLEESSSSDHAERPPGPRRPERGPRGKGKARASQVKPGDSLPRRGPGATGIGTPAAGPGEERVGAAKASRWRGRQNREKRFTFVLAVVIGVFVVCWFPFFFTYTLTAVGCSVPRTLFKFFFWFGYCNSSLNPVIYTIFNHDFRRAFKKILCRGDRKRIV

[3] = target: T2, Alpha-2C adrenergic receptor (Homo sapiens, UniProt P18825); assay: Displacement of [3H]RX821001 from human alpha2C adrenoceptor expressed in CHO cells after 60 mins […]; assay type: cell-based
T2 sequence (P18825 whole entry): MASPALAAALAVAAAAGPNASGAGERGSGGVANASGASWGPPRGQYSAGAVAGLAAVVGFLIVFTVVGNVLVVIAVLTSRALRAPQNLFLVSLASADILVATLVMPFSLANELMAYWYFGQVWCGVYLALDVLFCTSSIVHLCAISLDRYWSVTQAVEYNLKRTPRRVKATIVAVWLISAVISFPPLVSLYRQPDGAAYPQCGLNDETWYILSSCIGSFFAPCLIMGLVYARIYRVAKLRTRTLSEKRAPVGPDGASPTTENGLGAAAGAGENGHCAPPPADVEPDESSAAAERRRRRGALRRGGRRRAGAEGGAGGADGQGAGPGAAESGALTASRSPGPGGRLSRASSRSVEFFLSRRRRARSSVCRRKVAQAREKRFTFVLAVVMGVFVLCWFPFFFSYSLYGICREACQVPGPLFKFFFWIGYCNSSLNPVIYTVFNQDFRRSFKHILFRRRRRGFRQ

[4] = target: T3, Alpha-2B adrenergic receptor (Homo sapiens, UniProt P18089); assay: Displacement of [3H]RX821001 from human alpha2B adrenoceptor expressed in CHO cells after 60 mins by gamma counter; assay type: cell-based
T3 sequence (P18089 whole entry): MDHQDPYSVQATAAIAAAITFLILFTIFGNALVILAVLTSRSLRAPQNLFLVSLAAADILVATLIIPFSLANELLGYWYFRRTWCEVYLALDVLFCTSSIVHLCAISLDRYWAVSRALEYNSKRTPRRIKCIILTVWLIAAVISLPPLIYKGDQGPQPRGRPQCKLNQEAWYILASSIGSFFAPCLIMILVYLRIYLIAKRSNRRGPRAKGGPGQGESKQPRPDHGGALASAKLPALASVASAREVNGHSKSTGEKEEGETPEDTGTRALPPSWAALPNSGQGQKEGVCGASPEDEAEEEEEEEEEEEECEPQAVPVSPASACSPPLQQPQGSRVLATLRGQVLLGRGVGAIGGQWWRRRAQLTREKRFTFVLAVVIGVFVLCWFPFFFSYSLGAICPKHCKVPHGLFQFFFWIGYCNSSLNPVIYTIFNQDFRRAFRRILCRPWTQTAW

[5] = target: T4, Alpha-2C adrenergic receptor (Homo sapiens) (UniProt P18825); assay: Selectivity ratio of compound to rilmenidine for human alpha2C adrenoceptor expressed in CHO cells after 60 mins […]; assay type: cell-based
T4 sequence (whole entry): T2 sequence (P18825 whole entry)

Rattus norvegicus [6] = assay: Hypotensive activity in spontaneous hypertensive rat assessed as decrease in mean blood pressure at 10 mg/kg, iv measured continuously during 30 mins; assay type: functional, organism-based; design: dose 10 mg/kg
[7] = target: T5, Alpha-2B adrenergic receptor (Homo sapiens) (UniProt P18089); assay: Selectivity ratio of compound to rilmenidine for human alpha2B adrenoceptor expressed in CHO cells after 60 mins […]; assay type: cell-based
T5 sequence (whole entry): T3 sequence (P18089 whole entry)

[8] = target: T6, Alpha-2A adrenergic receptor (Homo sapiens) (UniProt P08913); assay: Selectivity ratio of compound to rilmenidine for human alpha2A adrenoceptor expressed in CHO cells after 60 mins […]; assay type: cell-based
T6 sequence (whole entry): T1 sequence (P08913 whole entry)

Rattus norvegicus [9] = assay: Toxicity in spontaneous hypertensive rat assessed as vasoconstrictive activity at 1 mg/kg, iv; assay type: organism-based; design: dose 1 mg/kg, route intravenous; conditions: in vivo
Rattus norvegicus [10] = assay: Hypotensive activity in spontaneous hypertensive rat assessed as decrease in mean blood pressure at 1 mg/kg, iv measured after 5 mins relative to control; assay type: functional; design: scale not given: the % may be the effect or the level left
PC-12 [11] = assay: Selectivity ratio of pKi for human alpha2C adrenoceptor to pKi for imidazoline I1 receptor in rat PC12 cell; assay type: cell-based
PC-12 [12] = assay: Selectivity ratio of pKi for human alpha2B adrenoceptor to pKi for imidazoline I1 receptor in rat PC12 cell; assay type: cell-based
PC-12 [13] = assay: Selectivity ratio of pKi for human alpha2A adrenoceptor to pKi for imidazoline I1 receptor in rat PC12 cell; assay type: cell-based
PC-12 [14] = assay: Selectivity ratio of pKi for imidazoline I2 receptor in New Zealand rabbit renal cortex to pKi for imidazoline I1 receptor in rat PC12 cell; assay type: cell-based

Clc1cccc(Cl)c1NC1=NCCN1 [CLONIDINE]
pKi [1]: < 5
Ki (Nischarin): 0.282 µM

Clc1ccccc1NC1=NCCC1
pKi [1]: 6.1
Ki [2]: 3.02 µM
Ki [3]: 5.01 µM
Ki (Nischarin): 0.0776 µM
Ki [4]: 0.933 µM

CC1COC(NC(C2CC2)C2CC2)=N1 (centres undefined)
Ratio [5]: > 794
pKi [1]: < 5
Ki [2]: 4.9 µM
Activity (Rattus norvegicus [6]): inactive
Ki [3]: > 10 µM
Ki (Nischarin): 0.363 µM
Ratio [7]: 66
Ratio [8]: 135
Activity (Rattus norvegicus [9]): Non-toxic
Ki [4]: 2.82 µM

CC1CCC(=Nc2ccc(I)cc2Cl)N1 (centres undefined)
Ki [2]: 2.57 µM
Ki [3]: > 10 µM
Ki (Nischarin): 0.000219 µM
Ki [4]: 4.17 µM

C1COC(NC(C2CC2)C2CC2)=N1 [RILMENIDINE]
pKi [1]: < 5
Ki [2]: 0.0363 µM
Ki [3]: 0.0126 µM
Ki [4]: 0.0427 µM

CC1CNC(Nc2c(Cl)cccc2Cl)=N1 (centres undefined)
pKi [1]: < 5
Ki [2]: 1.95 µM
Ki [3]: 5.75 µM
Ki (Nischarin): 0.000933 µM
Activity (Rattus norvegicus [10]): 45%
Activity (Rattus norvegicus [9]): Non-toxic
Ki [4]: 1.32 µM

CC1CCC(Nc2ccccc2Cl)=N1 (centres undefined)
pKi [1]: < 5
Ki [2]: > 10 µM
Activity (Rattus norvegicus [6]): inactive
Ki [3]: > 10 µM
Ki (Nischarin): 0.132 µM
Activity (Rattus norvegicus [9]): Non-toxic
Ki [4]: > 10 µM

CC1CCC(Nc2ccc(I)cc2Cl)=N1 (centres undefined)
pKi [1]: < 5
Ratio pKi (PC-12 [11]): > 45700
Ratio pKi (PC-12 [12]): 19100
Ratio pKi (PC-12 [13]): 11700
Ratio pKi (PC-12 [14]): > 45700
